Six molecules from US10870638B2, “Pyridazinone compound or its salt, and herbicide containing it” (ISHIHARA SANGYO KAISHA, LTD., priority 2016, dated 2020) can be followed below.

Assay type in all cases: in vivo
Conditions in all cases: active ingredient amount 31 g/ha, 14th day after application

The subject of experiment [1] is wheat (Triticum aestivum L.). Nature of the experiment: Test Example 2: soil application on the day after sowing, growth inhibition rate on 14th day. An excerpt: (§1) Upland field soil was put into a 1/300,000 hectare pot, and seeds of various plants (barnyardgrass (Echinochloa crus-qalli L.), crabgrass (Digitaris sanquinalis L.), green foxtail (Setaria viridis L.), redroot pigweed (Amaranthus retroflexus L.), prickly sida (Sida spinosa L.), velvetleaf (Abutilon theophrasti MEDIC.), rice (Oryza sativa L.), corn (Zea mays L.), wheat (Triticum aestivum L.), soybean (Glycine max Merr.)) were sown. On the day after sowing, wettable powders or emulsifiable concentrates of the compounds of the present invention prepared in accordance with a conventional preparation method, were weighed so as to achieve the prescribed active ingredient amounts, and diluted with water in an amount corresponding to 1,000 liters per 1 hectare, followed by soil application by a small sprayer.
(§2) On the 14th day after the application, the state of growth of the respective plants was visually observed, and the herbicidal effect was evaluated by a growth inhibition rate (%) of 0 (equivalent to the non-treated area) to 100 (complete kill).

For experiment [2], the system named is soybean (Glycine max Merr.). Described as above.
From the text: as §1, §2

The subject of experiment [3] is barnyardgrass (Echinochloa crus-qalli L.). The description is as above.
From the text: as §1, §2

Experiment [4] concerns corn (Zea mays L.). The experiment is described as above.
From the text: as §1, §2

Experiment [5] has as its system crabgrass (Digitaris sanquinalis L.). The description is as above.
From the text: as §1, §2

For experiment [6], the system named is velvetleaf (Abutilon theophrasti MEDIC.). The experiment is described as above.
From the text: as §1, §2

Experiment [7] relates to rice (Oryza sativa L.). The experiment is described as above.
From the text: as §1, §2

Experiment [8] concerns green foxtail (Setaria viridis L.). The description is as above.
From the text: as §1, §2

The test system of experiment [9] is prickly sida (Sida spinosa L.). The description is as above.
From the text: as §1, §2

The subject of experiment [10] is redroot pigweed (Amaranthus retroflexus L.). The experiment is described as above.
From the text: as §1, §2

The test system of experiment [11] is wild oat (Avena fatua L.). Nature of the experiment: Test Example 1: foliar treatment, growth inhibition rate on 14th day. Put shortly:
(§3)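 Plants in upland soil were sprayed on the foliage at early leaf stages (wild oat 0.4–1.2, rice 0.2–2.7, green foxtail 0.5–3.2, soybean primary leaf) with wettable powder or emulsifiable concentrate formulations. Spray volume was 1,000 L/ha water containing 0.1 vol% spreader, at prescribed active-ingredient rates. Growth inhibition (0 = untreated, 100 = complete kill) was scored visually on day 14.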

The subject of experiment [12] is wheat (Triticum aestivum L.). The description is as above. In outline:
(§4)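 Using a small sprayer, formulated compound in water (0.1 vol % surfactant, 1,000 L/ha) was applied to seedlings grown from seed in upland soil. Fourteen days on, growth state was observed and expressed as percent inhibition from 0 to 100.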

Experiment [13] has as its system soybean (Glycine max Merr.). The description is as above. Put shortly:
as §3

Experiment [14] deals with barnyardgrass (Echinochloa crus-qalli L.). Described as above. In outline: as §4
Experiment [15] has as its system corn (Zea mays L.). Described as above. Put shortly:
as §4

Experiment [16] relates to crabgrass (Digitaria sanquinalis L.). Described as above. In outline: as §4
Experiment [17] relates to rice (Oryza sativa L.). Described as above. Put shortly: as §3
The subject of experiment [18] is italian ryegrass (Lolium multiflorum Lam.). The experiment is described as above. Put shortly: as §4
Experiment [19] concerns green foxtail (Setaria viridis L.). Described as above. Put shortly:
as §3

Experiment [20] deals with redroot pigweed (Amaranthus retroflexus L.). The description is as above. Put shortly:
as §4

For the molecule `Cc1ccc(Oc2ncc(C(F)(F)F)cc2Cl)cc1-c1c(O)c(C)nn(C)c1=O` [1-1], the results for the “Growth inhibition rate (%) Wheat” value in experiment [1] and in experiment [12] were 0% and 65%, respectively. Also, the “Growth inhibition rate (%) Soybean” value in experiment [2] and in experiment [13] was 0% in each case. The figures for the “Growth inhibition rate (%) Barnyardgrass” value in experiment [3] and in experiment [14] were 85% and 100%, respectively. For the same molecule, the “Growth inhibition rate (%) Corn” value in experiment [4] turned out to be 50%; in experiment [15] it was 90%. Moreover, the “Growth inhibition rate (%) Crabgrass” value in [5] was found to be 100%; in [16], 95%. Besides, the “Growth inhibition rate (%) Velvetleaf” value in experiment [6] was 0%. In addition, the figures for the “Growth inhibition rate (%) Rice” value in [7] and in experiment [17] were 20% and 80%, respectively. The figures for the “Growth inhibition rate (%) Green foxtail” value in [8] and in [19] were 100% and 99%, respectively. Further, the “Growth inhibition rate (%) Prickly sida” value in experiment [9] is reported as 0%. For the same molecule, the results for the “Growth inhibition rate (%) Redroot pigweed” value in experiment [10] and in experiment [20] were 0% and 10%, respectively. In addition, the “Growth inhibition rate (%) Wild oat” value in [11] was 98%. Moreover, the “Growth inhibition rate (%) Italian ryegrass” value in experiment [18] was found to be 98%.

As for `CCc1ccc(Oc2ncc(C(F)(F)F)cc2Cl)cc1-c1c(O)c(C)nn(C)c1=O` [1-3], the entries for the “Growth inhibition rate (%) Wheat” value in experiment [1] and in experiment [12] were 35% and 15%, respectively. Also, the results for the “Growth inhibition rate (%) Soybean” value in [2] and in [13] were 0% and 15%, respectively. The “Growth inhibition rate (%) Barnyardgrass” value in experiment [3] and in experiment [14] was 100% each time. Also, the figures for the “Growth inhibition rate (%) Corn” value in [4] and in [15] were 90% and 99%, respectively. The “Growth inhibition rate (%) Crabgrass” value in experiment [5] worked out at 100%; in experiment [16], 99%. Moreover, the “Growth inhibition rate (%) Velvetleaf” value in experiment [6] stood at 0%. Moreover, the “Growth inhibition rate (%) Rice” value in experiment [7] is on record as 80%; in [17] it was 75%. The “Growth inhibition rate (%) Green foxtail” value in experiment [8] and in [19] was 100% each time. Besides, the “Growth inhibition rate (%) Prickly sida” value in [9] is reported as 0%. For the same molecule, the “Growth inhibition rate (%) Redroot pigweed” value in [10] and in experiment [20] was 0% in each case. The “Growth inhibition rate (%) Wild oat” value in experiment [11] amounted to 98%. The “Growth inhibition rate (%) Italian ryegrass” value in experiment [18] came out at 98%.

Turning to `CCc1ccc(Sc2ncc(C(F)(F)F)cc2Cl)cc1-c1c(O)c(C)nn(C)c1=O` [1-4], the “Growth inhibition rate (%) Wheat” value in experiment [1] turned out to be 0%; in [12], 10%. Besides, the “Growth inhibition rate (%) Soybean” value is on record as 0% in experiment [2] and 35% in [13]. Also, the “Growth inhibition rate (%) Barnyardgrass” value in experiment [3] is listed as 100%; in experiment [14] it was 99%. Moreover, the “Growth inhibition rate (%) Corn” value stood at 0% in experiment [4] and 93% in experiment [15]. Moreover, the “Growth inhibition rate (%) Crabgrass” value in experiment [5] came to 99%; in [16], 95%. The “Growth inhibition rate (%) Velvetleaf” value in experiment [6] came to 0%. For the same molecule, the “Growth inhibition rate (%) Rice” value in [7] came out at 40%; in [17], 20%. The “Growth inhibition rate (%) Green foxtail” value in experiment [8] came out at 98%; in experiment [19] it was 100%. In addition, the “Growth inhibition rate (%) Prickly sida” value in experiment [9] was found to be 0%. Also, the “Growth inhibition rate (%) Redroot pigweed” value in [10] worked out at 0%; in experiment [20] it was 10%. The “Growth inhibition rate (%) Wild oat” value in experiment [11] was found to be 99%. For the same molecule, in experiment [18], the “Growth inhibition rate (%) Italian ryegrass” value is listed as 95%.

As to `Cc1ccc(Oc2cnc3cc(Cl)ccc3n2)cc1-c1c(O)c(C)nn(C)c1=O` [Compound 2-7], the results for the “Growth inhibition rate (%) Wheat” value in experiment [1] and in experiment [12] were 25% and 98%, respectively. Moreover, the “Growth inhibition rate (%) Soybean” value in experiment [2] and in experiment [13] was 0% in each case. Further, the “Growth inhibition rate (%) Barnyardgrass” value in experiment [3] was determined as 99%; in experiment [14], 100%. Besides, the entries for the “Growth inhibition rate (%) Corn” value in [4] and in experiment [15] were 20% and 10%, respectively. In addition, in experiment [5], the “Growth inhibition rate (%) Crabgrass” value is recorded as 99%. For the same molecule, in experiment [6], the “Growth inhibition rate (%) Velvetleaf” value is given as 0%. The “Growth inhibition rate (%) Rice” value in experiment [7] worked out at 40%; in experiment [17], 100%. Also, the “Growth inhibition rate (%) Green foxtail” value in experiment [8] and in experiment [19] was 100% each time. Also, the “Growth inhibition rate (%) Prickly sida” value in experiment [9] was found to be 0%. In addition, the “Growth inhibition rate (%) Redroot pigweed” value was 0% in [10] and 50% in [20]. In [11], the “Growth inhibition rate (%) Wild oat” value amounted to 98%. The “Growth inhibition rate (%) Italian ryegrass” value in experiment [18] is listed as 100%.

`CC(=O)Oc1cnn(C)c(=O)c1-c1cc(Oc2nc3cc(Cl)ccc3o2)ccc1C` [Compound 2-174]: the “Growth inhibition rate (%) Wheat” value turned out to be 0% in [1] and 93% in experiment [12]. Also, the “Growth inhibition rate (%) Soybean” value in [2] and in experiment [13] was 0% in each case. Further, the “Growth inhibition rate (%) Barnyardgrass” value in [3] was 20%; in experiment [14], 100%. For the same molecule, the “Growth inhibition rate (%) Corn” value in experiment [4] is 20%; in [15], 95%. Also, the “Growth inhibition rate (%) Crabgrass” value amounted to 80% in [5] and 93% in experiment [16]. In experiment [6], the “Growth inhibition rate (%) Velvetleaf” value came to 0%. Besides, the “Growth inhibition rate (%) Rice” value stood at 0% in experiment [7] and 93% in experiment [17]. Besides, the figures for the “Growth inhibition rate (%) Green foxtail” value in experiment [8] and in [19] were 0% and 93%, respectively. Besides, in experiment [9], the “Growth inhibition rate (%) Prickly sida” value came out at 0%. Further, the “Growth inhibition rate (%) Redroot pigweed” value in experiment [10] came out at 0%. The “Growth inhibition rate (%) Wild oat” value in [11] was 88%. Moreover, the “Growth inhibition rate (%) Italian ryegrass” value in experiment [18] came to 95%.

In the case of `Cc1ccc(Oc2cnc3cc(Cl)ccc3n2)cc1-c1c(O)c(C)nn(C)c1=O` [Compound 3-1], the results for the “Growth inhibition rate (%) Wheat” value in experiment [1] and in experiment [12] were 25% and 98%, respectively. In addition, the “Growth inhibition rate (%) Barnyardgrass” value is on record as 99% in [3] and 100% in experiment [14]. Also, the “Growth inhibition rate (%) Corn” value in experiment [4] stood at 20%; in experiment [15] it was 10%. Further, the “Growth inhibition rate (%) Velvetleaf” value in experiment [6] was 0%. Moreover, the entries for the “Growth inhibition rate (%) Rice” value in experiment [7] and in [17] were 40% and 100%, respectively. For the same molecule, the “Growth inhibition rate (%) Prickly sida” value in experiment [9] amounted to 0%. Further, the “Growth inhibition rate (%) Redroot pigweed” value is recorded as 0% in experiment [10] and 50% in [20]. For the same molecule, the “Growth inhibition rate (%) Wild oat” value in experiment [11] is recorded as 98%. Moreover, in [13], the “Growth inhibition rate (%) Soybean” value turned out to be 0%. Moreover, the “Growth inhibition rate (%) Crabgrass” value in experiment [16] is listed as 99%. Further, in experiment [18], the “Growth inhibition rate (%) Italian ryegrass” value is 100%. Also, the “Growth inhibition rate (%) Green foxtail” value in experiment [19] is listed as 100%.
